Assay results as given in US20040248954A1, “Cycloalkylsulfanyl substituted benzo[b]thiophenes as therapeutic agents” (priority 2003, published 2004).

Target: T1, p101/p110γ protein (PI3Kγ) (Homo sapiens, UniProt P48736)
T1 construct: HA; made in house; host or cells: Spodoptera frugiperda (Sf9) cells, baculovirus coinfection
Assay: PI3Kγ in vitro kinase assay
Assay type: biochemical
Settings: purified recombinant p101/p110γ with G protein β1/γ2 subunits, 20 μM ATP, 25 μM PIP2, 20 minutes at room temperature
Experimental: Spodtera frugiperda cells, grown in ESF921 media, were coinfected with baculovirus expressing a glu-tagged pO1 and baculovirus expressing an HA-tagged p110γ, at a 3:1 ratio of p101 baculovirus to p110γ baculovirus. Sf9 cells were grown to 1×10^7 total cells/mL in 10 L bioreactors and harvested 48-72 hours post infection. Samples of infected cells were then tested for expression of p101/p110γ PI3 kinase by immunoprecipitation and Western Blot analysis methods (see below).
To purify PI3Kγ, 4 volumes of room temperature hypotonic lysis buffer (1 mM MgCl2, 1 mM DTT, 5 mM EGTA, 1 mM Pefabloc, 0.5 μM aprotinin, 5 μM leupeptin, 2 μM pepstatin, 5 μM E64, pH 8) per gram of cell paste, was poured onto frozen cell pellets with stirring, then lysed in a nitrogen “bomb” at 400 psi (599HC T316, Parr Instrument Co, Moline, Ill.). NaCl was added to 150 mM, and sodium cholate was added to 1% and mixed for another 45 minutes. The lysates were clarified by centrifugation for 25 minutes at 14,000 rpm. The lysates were then loaded over anti-glu-linked Protein-G Sepaharose beads (Covance Research Products, Richmond, Calif.) using 20 mL resin/50 g cell paste. The column was washed with 15 volumes of wash buffer (1 mM DTT, 0.2 mM EGTA, 1 mM Pefabloc, 0.5 μM aprotinin, 5 μM leupeptin, 2 μM pepstatin, 5 μM E64, 150 mM NaCl, 1% sodium cholate, pH 8). PI3Kγ was eluted with 6 column volumes of wash buffer that contain 100 μg/mL of a peptide that competes for binding of the glu tag. The column fractions with the eluted protein (determined by taking OD280 readings) were collected and dialyzed in 0.2 mM EGTA, 1 mM DTT, 1 mM Pefabloc, 5 μM leupeptin, 0.5% sodium cholate, 150 mM NaCl, and 50% glycerol, pH 8. The fractions were stored at −80° C. until further use.
Spodtera frugiperda cells were coinfected with baculovirus expressing a glu-tagged G protein β1 and baculovirus expressing a G protein β2, at a 1:1 ratio of glu-tagged G protein β1 baculovirus to G protein β2 baculovirus. Sf9 cells are grown in 10 L bioreactors and harvested 48-72 hours post infection. Samples of infected cells were tested for G protein β1/β2 expression by Western Blot analysis, as described below. Cell lysates were homogenized and loaded onto a column of glu-tagged beads as in Biological Example 1 and competed off the column with a glu peptide and processed as described in Biological Example 1.
The inhibitory properties of the compounds in Table 1 were assayed in an in vitro PI3K assay. In a 96-well polypropylene plate, each well was spotted with 2 μL of 50 times the desired final concentration of compound in DMSO. Purified recombinant p101/p110γ protein (0.03 μg; ˜2.7 nM) and G protein β1/γ2 subunits (0.09 μg; ˜57.7 nM) for each reaction was combined in the assay buffer (30 mM HEPES, 100 mM NaCl, 1 mM EGTA, and 1 mM DTT). ATP and [γ-^32P-ATP] (0.09 μCi) were added to this mixture so that the final ATP concentration in the reaction was 20 μM. Lipid micelles were formed by sonicating phosphatidylinositol4,5-diphosphate (PIP2), phosphatidylethanolamine (PE), and Na-cholate in the assay buffer for 10 minutes, adding MgCl2 and incubating on ice for 20 minutes, for final concentrations of 25 μM PIP2, 300 μM PE, 0.02% Na-cholate, and 10 mM MgCl2 in the reaction. The reactions were started by adding equal volumes lipid and enzyme mixture in a total volume of 50 μL, allowed to run for 20 minutes at room temperature, and stopped with 100 μL 75 mM H3PO4. The lipid product was transderred to a glass fiber filter plate and washed with 75 mM H3PO4 severa; times. The presence of radioactive lipid product (PIP3) was measured by adding Wallac Optiphase mix to each well and counting in a Wallac 1450 Trilux plate reader (perkinElmer Life Sciences Inc., Boston, Mass. 02118). The IC50 for each compound tested is reported in μM in Table 1: […]

T1 sequence (P48736 whole entry, species assumed): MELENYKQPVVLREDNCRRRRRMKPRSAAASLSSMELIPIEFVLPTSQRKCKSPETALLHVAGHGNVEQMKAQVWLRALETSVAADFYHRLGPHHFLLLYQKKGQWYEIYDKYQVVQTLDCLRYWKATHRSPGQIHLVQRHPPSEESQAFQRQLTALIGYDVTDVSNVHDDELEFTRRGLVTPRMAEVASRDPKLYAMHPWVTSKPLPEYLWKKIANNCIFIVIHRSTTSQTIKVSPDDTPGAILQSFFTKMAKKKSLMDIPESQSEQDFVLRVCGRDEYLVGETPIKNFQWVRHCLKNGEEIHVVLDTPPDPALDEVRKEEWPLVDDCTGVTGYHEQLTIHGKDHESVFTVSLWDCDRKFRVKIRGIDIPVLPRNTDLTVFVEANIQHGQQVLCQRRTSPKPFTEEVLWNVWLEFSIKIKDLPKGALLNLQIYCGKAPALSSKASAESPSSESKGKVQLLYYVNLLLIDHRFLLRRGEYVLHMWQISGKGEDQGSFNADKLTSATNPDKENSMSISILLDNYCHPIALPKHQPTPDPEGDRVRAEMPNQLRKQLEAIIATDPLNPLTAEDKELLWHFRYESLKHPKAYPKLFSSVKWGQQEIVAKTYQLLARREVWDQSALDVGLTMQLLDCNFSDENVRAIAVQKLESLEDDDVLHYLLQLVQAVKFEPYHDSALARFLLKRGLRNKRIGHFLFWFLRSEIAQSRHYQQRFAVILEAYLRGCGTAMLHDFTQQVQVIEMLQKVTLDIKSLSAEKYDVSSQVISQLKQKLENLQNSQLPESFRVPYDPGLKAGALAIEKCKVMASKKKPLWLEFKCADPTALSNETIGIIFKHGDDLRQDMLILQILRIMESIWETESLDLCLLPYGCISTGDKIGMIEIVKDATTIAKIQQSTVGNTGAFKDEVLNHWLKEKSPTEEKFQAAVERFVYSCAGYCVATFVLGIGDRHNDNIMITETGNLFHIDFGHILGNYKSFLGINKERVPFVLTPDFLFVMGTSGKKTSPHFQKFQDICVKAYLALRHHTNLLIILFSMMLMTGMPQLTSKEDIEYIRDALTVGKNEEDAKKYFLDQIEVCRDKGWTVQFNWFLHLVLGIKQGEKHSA
T1 sequence (Q8WYR1 whole entry partner, species assumed): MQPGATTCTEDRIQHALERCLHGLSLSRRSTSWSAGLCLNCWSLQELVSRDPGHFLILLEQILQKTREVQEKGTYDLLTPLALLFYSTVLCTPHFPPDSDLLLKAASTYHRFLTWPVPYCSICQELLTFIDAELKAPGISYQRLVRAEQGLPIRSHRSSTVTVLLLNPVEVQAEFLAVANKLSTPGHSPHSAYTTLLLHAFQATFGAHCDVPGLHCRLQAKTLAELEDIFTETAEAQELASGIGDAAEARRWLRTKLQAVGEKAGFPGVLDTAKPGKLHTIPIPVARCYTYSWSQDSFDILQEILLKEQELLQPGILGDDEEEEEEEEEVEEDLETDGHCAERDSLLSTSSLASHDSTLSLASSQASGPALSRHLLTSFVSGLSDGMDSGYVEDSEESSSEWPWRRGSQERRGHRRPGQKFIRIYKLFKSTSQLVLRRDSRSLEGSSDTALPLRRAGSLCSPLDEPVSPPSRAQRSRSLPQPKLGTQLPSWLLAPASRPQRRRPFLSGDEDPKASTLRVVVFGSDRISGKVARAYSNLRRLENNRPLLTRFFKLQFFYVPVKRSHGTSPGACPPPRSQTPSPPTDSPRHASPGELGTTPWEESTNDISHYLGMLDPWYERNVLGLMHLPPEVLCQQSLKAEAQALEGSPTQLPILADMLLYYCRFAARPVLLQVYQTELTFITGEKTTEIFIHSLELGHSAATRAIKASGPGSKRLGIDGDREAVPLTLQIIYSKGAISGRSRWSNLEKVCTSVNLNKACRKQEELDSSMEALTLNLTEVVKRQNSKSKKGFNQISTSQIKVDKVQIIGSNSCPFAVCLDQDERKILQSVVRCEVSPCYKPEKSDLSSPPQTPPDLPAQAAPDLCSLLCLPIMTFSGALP

SMILES | IC50 [nM]
COc1cc2c(SC3CCCCC3)c(C(=O)Nc3nnn[nH]3)sc2cc1COCc1ccccc1 [Example 14, 6-Benzyloxymethyl-3-cyclohexylsulfanyl-5-methoxy-benzo[b]thiophene-2-carboxylic acid (1H-tetrazol-5-yl)-amide] | 640
COc1cc2sc(C(=O)Nc3nnn[nH]3)c(SCC3CC3)c2cc1OC [Example 15, 3-Cyclopropylmethylsulfanyl-5,6-dimethoxy-benzo[b]thiophene-2-carboxylic acid (1H-tetrazol-5-yl)-amide] | 243
COc1cc2c(SC3CCCCC3)c(C(=O)Nc3nnn[nH]3)sc2cc1C [Example 11, 3-Cyclohexylsulfanyl-5-methoxy-6-methyl-benzo[b]thiophene-2-carboxylic acid (1H-tetrazol-5-yl)-amide] | 35
COc1cc2sc(C(=O)Nc3nnn[nH]3)c(SC3CCCC3)c2cc1OC [Example 5, 3-cyclopentylsulfanyl-5,6-dimethoxy-benzo[b]thiophene-2-carboxylic acid (1H-tetrazol-5-yl)-amide] | 249
COc1ccc2sc(C(=O)Nc3nnn[nH]3)c(SC3CCCCC3)c2c1 [Example 4, 3-cyclohexylsulfanyl-5-methoxy-benzo[b]thiophene-2-carboxylic acid (1H-tetrazol-5-yl)-amide] | 382
COCc1cc2sc(C(=O)Nc3nnn[nH]3)c(SC3CCCCC3)c2cc1OC [Example 12, 3-Cyclohexylsulfanyl-5-methoxy-6-methoxymethyl-benzo[b]thiophene-2-carboxylic acid (1H-tetrazol-5-yl)-amide] | 495
CCOCc1cc2sc(C(=O)Nc3nnn[nH]3)c(SC3CCCCC3)c2cc1OC [Example 13, 3-Cyclohexylsulfanyl-6-ethoxymethyl-5-methoxy-benzo[b]thiophene-2-carboxylic acid (1H-tetrazol-5-yl)-amide] | 175
CCOc1ccc2sc(C(=O)Nc3nnn[nH]3)c(SC3CCCCC3)c2c1 [Example 10, 3-Cyclohexylsulfanyl-5-ethoxy-benzo[b]thiophene-2-carboxylic acid (1H-tetrazol-5-yl)-amide] | 1550
COc1cc2sc(C(=O)Nc3nnn[nH]3)c(SC3CCCC3)c2cc1C [Example 7, 3-Cyclopentylsulfanyl-6-methoxy-5-methyl-benzo[b]thiophene-2-carboxylic acid (1H-tetrazol-5-yl)-amide] | 118
COc1ccc2sc(C(=O)Nc3nnn[nH]3)c(SC3CCCC3)c2c1 [Example 3, 3-cyclopentylsulfanyl-5-methoxy-benzo[b]thiophene-2-carboxylic acid (1H-tetrazol-5-yl)-amide] | 1190

Results, then the compound that gave them:

IC50 [nM] | SMILES
2130 | CCOc1ccc2sc(C(=O)Nc3nnn[nH]3)c(SC3CCCC3)c2c1 [Example 9, 3-Cyclopentylsulfanyl-5-ethoxy-benzo[b]thiophene-2-carboxylic acid (1H-tetrazol-5-yl)-amide]
47 | COc1cc2sc(C(=O)Nc3nnn[nH]3)c(SC3CCCCC3)c2cc1C [Example 8, 3-Cyclohexylsulfanyl-6-methoxy-5-methyl-benzo[b]thiophene-2-carboxylic acid (1H-tetrazol-5-yl)-amide]
92 | COc1ccc2sc(C(=O)Nc3nnn[nH]3)c(SCC3CCCCC3)c2c1 [Example 1, 3-Cyclohexylmethylsulfanyl-5-methoxy-benzo[b]thiophene-2-carboxylic acid (1H-tetrazol-5-yl)-amide]
3810 | COc1cc2sc(C(=O)Nc3nnn[nH]3)c(SCC3CCCCC3)c2cc1OC [Example 2, 3-cyclohexylmethylsulfanyl-5,6-dimethoxy-benzo[b]thiophene-2-carboxylic acid (1H-tetrazol-5-yl)-amide]
121 | COc1cc2sc(C(=O)Nc3nnn[nH]3)c(SC3CCCCC3)c2cc1OC [Example 6, 3-Cyclohexylsulfanyl-5,6-dimethoxy-benzo[b]thiophene-2-carboxylic acid (1H-tetrazol-5-yl)-amide]
